Results: PubChem BioAssay (NCI)
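Step 1: Grow cells in 96-well plates. Step 2: Expose to compound for 48 hours at 5 concentrations. Step 3: Interpolate endpoints linearly; if unreached, use highest concentration. GI50 marks 50% less growth. TGI marks complete inhibition of growth.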 *1 amine or outer side, *2 acyl side, *3 side chain or, on linkers, in order; H or OH if unused. Where a SMILES comes first, the peptide text is derived from it. Bridges are numbered along the chain shown (N, C = ends). [ ]: non-standard residue; d: D form. The star is where a group is joined. Phe(3-Me) = Cc1cccc(C[C@H](N)C(=O)O)c1; NH(4-Cl-2-F-phenyl) = Fc1cc(Cl)ccc1N*; Pro(4R-Me) = C[C@H]1CN[C@H](C(=O)O)C1; Propanoyl(3-NMe2) = CN(C)CCC(=O)*; Hyp = O=C(O)[C@@H]1C[C@@H](O)CN1; aThr = C[C@H](O)[C@H](N)C(=O)O; Pip = O=C(O)[C@@H]1CCCCN1; CO = O=C([*:1])[*:2]

How the values were obtained:
Assay in all cases: growth of human tumour cells (NCI), 48 h
MDA-MB-231 breast = tested on: MDA-MB-231 breast
OVCAR-3 ovarian = tested on: OVCAR-3 ovarian
COLO 205 colon = tested on: COLO 205 colon
OVCAR-5 ovarian = tested on: OVCAR-5 ovarian
NCI-H23 lung = tested on: NCI-H23 lung
HCT-116 colon = tested on: HCT-116 colon
MDA-MB-435 = tested on: MDA-MB-435
MALME-3M melanoma = tested on: MALME-3M melanoma
DLD-1 colon = tested on: DLD-1 colon
DMS 114 small cell lung = tested on: DMS 114 small cell lung

SMILES	TGI (MDA-MB-231 breast) [µM]	TGI (OVCAR-3 ovarian) [µM]	TGI (COLO 205 colon) [µM]	TGI (OVCAR-5 ovarian) [µM]	TGI (NCI-H23 lung) [µM]	TGI (HCT-116 colon) [µM]	TGI (MDA-MB-435) [µM]	TGI (MALME-3M melanoma) [µM]	GI50 (MDA-MB-231 breast) [µM]	GI50 (OVCAR-3 ovarian) [µM]	GI50 (COLO 205 colon) [µM]	GI50 (OVCAR-5 ovarian) [µM]	GI50 (NCI-H23 lung) [µM]	GI50 (HCT-116 colon) [µM]	GI50 (MDA-MB-435) [µM]	GI50 (MALME-3M melanoma) [µM]	TGI (DLD-1 colon) [µM]	TGI (DMS 114 small cell lung) [µM]
CC(=O)c1ccc(NCN2C(=O)c3ccccc3C2=O)cc1	> 100	> 100	> 100	> 100	> 100	> 100	> 100	> 100										
CC(=O)Nc1sc2c(c1-c1nc3ccccc3s1)CNC2	16.2	24.4	9.73	18	11.8	12.5	12.5	8.75	3.09	3.85	1.88	3.05	2.44	1.99	3.48	2.21		
COc1cc(OC)cc(-c2cncn2-c2ccc(-c3nc4cc(OC)c(OC)c(OC)c4s3)cc2)c1	> 100	26.7	> 100	> 100	> 100	> 100	> 100	75.1	19.2	6.07	3.85	> 100	9.56	3.76	6.07	9.59		
Cc1cccc(C[C@H](NC(=O)Nc2ccc(Cl)cc2F)C(=O)N[C@@H]2C(=O)N3C[C@H](OC(=O)CCN(C)C)C[C@H]3C(=O)N3CCCC[C@H]3C(=O)N[C@@H](C)C(=O)N3C[C@H](C)C[C@H]3C(=O)O[C@H]2C)c1 ({NH(4-Cl-2-F-phenyl)-CO}-[Phe(3-Me)][aThr][Hyp](Propanoyl(3-NMe2))[Pip]A[Pro(4R-Me)]; ester 2-C)	1.66	1.47	1.43	2.53	3.17	1.62	1.65	1.97	0.417	0.362	0.355	0.552	0.519	0.408	0.432	0.567		
CN1CCCCC1CCN1c2ccccc2Sc2ccc(S(C)=O)cc21 (stereo not given)	> 100	> 100	> 100	> 100	> 100	> 100	> 100	> 100										
Cc1nc2cc(N)c(Cl)cc2[nH]1	> 100	> 100	> 100	> 100	> 100	> 100	> 100	> 100										
CC1=C(c2cc(C(=O)Nc3nccs3)nc(NC#N)n2)Sc2ccccc2N1		> 100	> 100	> 100	> 100	> 100		> 100									> 100	
CN1CCCN(C(c2ccccc2)c2ccc(Br)cc2)CC1 (stereo not given)	7.81	10.2	16.2	22.5	22.1	4.23	3.83	11.8	2.41	2.83	3.93	10.7	10.3	1.84	1.87	2.57		
O=C(O)/C=C\C(=O)Nc1ccc2c(c1)C(=O)c1cc(F)ccc1-2	> 100	> 100	> 100	> 100	> 100	> 100	> 100	> 100										
COc1cc2c3c(c4c5ccccc5[nH]c4c2c(OC)c1OC)C(=O)N(CCN1CCCCC1)C3=O	3.08	2.77	3.25	3.05	2.68	1.46	3.27	2.85	1.47	1.31	0.849	1.29	1.12	0.351	1.48	1.36		
O=C(CN1CCN(c2ccc(Cl)cc2)CC1)N1CCN(c2nnc(-c3ccccc3)c(-c3ccccc3)n2)CC1	> 100	> 100	> 100	> 100	> 100	> 100	> 100	> 100	> 100	8.38	3.47	> 100	4	3.42	7.25	2.7		
Cc1cc2c(c(N)c1C)C(=O)c1ccccc1C2=O			> 100	> 100		50.4		> 100									> 100	> 100
COc1cc(NC(N)=NCCC(C)(C)c2ccc(C(F)(F)F)cc2)ncc1C#N	3.34	3.5	3.21	3.76	3.15	2.9	3.25	3.47	1.8	1.79	1.65	1.97	1.53	1.51	1.78	1.82		
CC[C@]12CCCN3CC[C@]4(C(=C(C(=O)OC)C1)Nc1ccccc14)[C@@H]32	38.1	31.1	35.7	34.1	43.8	33	41	29.7	15.5	17	16.9	15.9	17.1	14.6	11.1	13		
CCCN1CCN(c2ccc3nc(-c4ccc5nc(-c6ccc(OCC)c(OCC)c6)[nH]c5c4)[nH]c3c2)CC1	2.81	0.622	1.4	4.32	0.765	1.19	1.81	1.19	1.21	0.258	0.164	1.67	0.251	0.218	0.532	0.0647		
Nc1nc2c(c3cnccc13)C(c1cccc(Cl)c1)Cc1cnccc1-2 (stereo not given)	11	13.1	0.872	18.6	3.51	11.3	1.46	17.8	0.763	0.293	0.296	0.706	0.382	0.448	0.21	0.419		
